According to patent US8129380B2, “Phthalazinone derivatives” (AstraZeneca AB, priority 2008, dated 2012):

Assays:
HeLa cells = assay: Potentiation Factor (PF50): MMS growth inhibition, SRB assay; format: cell-based; conditions: MMS 0-10 μg/ml, ratio IC50 control / IC50 + inhibitor; for PF50 (30 nM): PARP inhibitor at 30 nM; for PF50 (200 nM): PARP inhibitor at 200 nM
Method: The Potentiation Factor (PF50) for compounds is calculated as a ratio of the IC50 of control cell growth divided by the IC50 of cell growth+PARP inhibitor. Growth inhibition curves for both control and compound treated cells are in the presence of the alkylating agent methyl methanesulfonate (MMS). The test compounds were used at a fixed concentration of 0.2 micromolar. The concentrations of MMS were over a range from 0 to 10 μg/ml.
2,000 HeLa cells were seeded into each well of a flat-bottomed 96-well microtiter plate in a volume of 100 μl and incubated for 6 hours at 37° C. Cells were either replaced with media alone or with media containing PARP inhibitor at a final concentration of 30 nM or 200 nM. […] Cells treated with PARP inhibitor alone were used to assess the growth inhibition by the PARP inhibitor.
Cells were left for a further 16 hours before replacing the media and allowing the cells to grow for a further 72 hours at 37° C. The media was then removed and the cells fixed with 100 μl of ice cold 10% (w/v) trichloroacetic acid. The plates were incubated at 4° C. for 20 minutes and then washed four times with water. Each well of cells was then stained with 100 μl of 0.4% (w/v) SRB in 1% acetic acid for 20 minutes before washing four times with 1% acetic acid. Plates were then dried for 2 hours at room temperature. The dye from the stained cells was solubilized by the addition of 100 μl of 10 mM Tris Base into each well.

[1] = Solubility in 0.1 M phosphate buffer; format: physicochemical; conditions: pH 7.4, 24 hours, 25° C.
Method: The solubility of the test compounds was measured following a method described in Leach, A., et al., J Med Chem (2006), 49(23), 6672-6682:
Solubility values are determined from agitation of compounds in 0.1 M phosphate buffer at pH 7.4 for 24 hours at 25° C. The supernatant is separated from undissolved material by double centrifugation and subsequently analysed and quantified against a standard of known concentration in DMSO using generic HPLC-UV methodology coupled with mass spectral peak identification.

[2] = target: T1, P-glycoprotein (KBA1 cells) (Homo sapiens, UniProt P08183); assay: P-gp substrate activity, Dose Modification Ratio with/without Verapamil, SRB assay; format: in vitro ADME; conditions: IC50 without Verapamil / IC50 with 20 μM Verapamil, 5 days
T1 construct: Cells from the Hela cell line known as KBA1, which expressed high P-glycoprotein; endogenous in cells; host or cells: KBA1 (HeLa-derived) cells; matched non-P-gp line KB31
Method: Cells from the Hela cell line known as KBA1, which expressed high P-glycoprotein (ABC1a and ABC1b transporter glycoproteins also known as MDR1a and MDR1b) and the matched non-P-glycoprotein expressing line known as KB31, were seeded onto 96 well tissue culture plates with 80 μl per well of 1.00×10^4 cells/ml=800 cells/well [DMEM, 10% FBS, PSG] and left to adhere for 4 hours. After the incubation period 10 μl per well of 200 μM Verapamil (giving a final conc. of 20 μM) a known inhibitor of P-gp or vehicle media were added to various wells of the cell plates. The 96 well plates were left in the incubator for 1 hour prior to 10 μl of test compound (or the known substrate Etoposide as a reference control) or 10 μl PBS/1% DMSO vehicle (control wells) being added into either Verapamil containing or media control wells. […]
The cell plates were then incubated for 5 days prior to cell growth being assessed using the Sulforhodamine B (SRB) assay as described previously. The P-gp substrate activity for each compound was calculated using the cell growth activity of the tests compounds on the KBA1 cells in the presence or absence (control wells) of Verapamil. The Dose Modification Ratio (DMR) is calculated from the KBA1 where for each test compound a ratio of the IC50 of the compound in the absence of Verapamil is divided by the IC50 of cell growth in the presence of Verapamil. […]

T1 sequence (P08183 whole entry): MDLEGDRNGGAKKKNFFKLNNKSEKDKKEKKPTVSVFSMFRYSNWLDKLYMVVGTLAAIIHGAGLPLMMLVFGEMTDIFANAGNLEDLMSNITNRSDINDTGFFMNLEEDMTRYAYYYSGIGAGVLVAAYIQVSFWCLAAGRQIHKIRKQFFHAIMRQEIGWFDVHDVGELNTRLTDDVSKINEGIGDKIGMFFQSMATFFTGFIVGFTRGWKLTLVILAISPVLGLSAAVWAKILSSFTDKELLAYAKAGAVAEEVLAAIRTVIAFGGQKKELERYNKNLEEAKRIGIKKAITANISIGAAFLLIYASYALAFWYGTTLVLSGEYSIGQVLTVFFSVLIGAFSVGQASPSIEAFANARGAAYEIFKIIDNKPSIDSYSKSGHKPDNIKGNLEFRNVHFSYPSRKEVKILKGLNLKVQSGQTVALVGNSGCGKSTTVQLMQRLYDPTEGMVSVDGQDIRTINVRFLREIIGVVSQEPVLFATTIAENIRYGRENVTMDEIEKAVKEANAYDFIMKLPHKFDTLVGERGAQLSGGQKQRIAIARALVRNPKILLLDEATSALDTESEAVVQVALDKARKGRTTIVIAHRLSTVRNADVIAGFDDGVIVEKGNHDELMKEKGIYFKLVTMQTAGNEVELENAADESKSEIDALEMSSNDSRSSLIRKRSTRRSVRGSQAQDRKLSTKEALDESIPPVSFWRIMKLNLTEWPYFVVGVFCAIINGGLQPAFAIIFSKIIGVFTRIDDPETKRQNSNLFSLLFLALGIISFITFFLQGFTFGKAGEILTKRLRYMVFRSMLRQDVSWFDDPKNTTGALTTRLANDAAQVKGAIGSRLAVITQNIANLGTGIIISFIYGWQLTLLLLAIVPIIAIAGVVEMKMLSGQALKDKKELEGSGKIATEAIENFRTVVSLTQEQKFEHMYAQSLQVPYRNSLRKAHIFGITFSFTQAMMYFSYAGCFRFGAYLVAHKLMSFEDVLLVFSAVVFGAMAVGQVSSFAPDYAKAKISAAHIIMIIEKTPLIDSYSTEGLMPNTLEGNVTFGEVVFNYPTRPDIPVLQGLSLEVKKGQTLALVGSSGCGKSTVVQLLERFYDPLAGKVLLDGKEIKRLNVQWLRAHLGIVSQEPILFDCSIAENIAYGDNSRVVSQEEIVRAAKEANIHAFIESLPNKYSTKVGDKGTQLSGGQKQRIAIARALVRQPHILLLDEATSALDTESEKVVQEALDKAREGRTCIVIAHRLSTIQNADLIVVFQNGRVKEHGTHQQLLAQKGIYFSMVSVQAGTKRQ

solubility [1] | Dose Modification Ratio (DMR) [2] | Compound | PF50 (30 nM) (HeLa cells) | PF50 (200 nM) (HeLa cells)
211 µmol | 1.0 | CCOC1CCN(C(=O)c2cc(Cc3n[nH]c(=O)c4ccccc34)ccc2F)CC1 [Compound 2f, 4-(3-(4-ethoxypiperidine-1-carbonyl)-4-fluorobenzyl)phthalazin-1(2H)-one] | 14.1 | 25
1070 µmol | 1.3 | COC1CCN(C(=O)c2cc(Cc3n[nH]c(=O)c4ccccc34)ccc2F)CC1 [Compound 2b, 4-(4-fluoro-3-(4-methoxypiperidine-1-carbonyl)benzyl)phthalazin-1(2H)-one] | 3.0 | 15
